Data as given in patent US20030215472A1, “Methods and compositions employing a dialkyl amide” (priority 2002, published 2003).

Tests used:
[1] = test system: Micrococcus luteus ATCC #10240; experiment: MIC via Zone of Inhibition testing, M. luteus; assay type: cell-based
Procedure: (§1) For culture preparation, an overnight Tryptic Soy Agar (TSA) culture was grown with M. luteus ATCC #10240. This culture was washed and diluted with saline to 85% transmittance at 530 nm. An overnight anaerobic culture of P. acnes ATCC#11827 was prepared in Brain Heart Infusion Broth (BHIB). This was washed with saline and diluted to 85% transmittance at 530 nm. An overnight aerobic culture of C. xerosis ATCC#373 was also grown in BHIB, washed with saline and diluted to 85% transmittance at 530 nm. These cultures were used as inocula. Three sets of nine different dilutions of sample were prepared for MIC results using TSA or BHIB as follows: (1) 2.0 grams sample+8.0 mL media=1:5 or 20%; (2) 2.0 mL of #1+8.0 mL media=1:25 or 4%; (3) 2.0 mL of #2+8.0 mL media=1:125 or 0.8%; (4) 2.0 mL of #3+8.0 mL media=1:625 or 0.16%; (5) 2.0 mL of #4+8.0 mL media=1:3125 or 0.032%; (6) 2.0 mL of #5+8.0 mL media=1:15625 or 0.0064%; (7) 2.0 mL of #6+8.0 mL media=1:78125 or 0.00128%; (8) 2.0 mL of #7+8.0 mL media=1:390625 or 0.000256%; and (9) 2.0 mL of #8+8.0 mL media=1:1953125 or 0.0000512%.
(§2) The product dilutions were dispensed onto Zone of Inhibition plates. TSA and BHIB plates were prepared by using the base and seed method. Seed consisted of 2.0 mL of inoculum per 20.0 mL of TSA or BHIB used. A single penicylinder placed in the center of the plate when agar was solidified. Each penicylinder was inoculated with 200 μL of the MIC dilutions listed above; this procedure was performed in duplicate. Control plates were performed simultaneously; also using the base and seed method. M. luteus plates were incubated for 48 hours at 30° C. to 35° C. P. acnes plates were incubated for 5-7 days 36° C. to 38° C. anaerobically, C. xerosis plates were incubated aerobically at 36° C. to 38° C. Plates were measured for zones and calculated in millimeters.
For MLC Preparation, swabbing of the zones was performed to calculate MLC results. […] These swabs were then placed in TSA or BHIB for incubation. […] MLC results are recorded as positive or negative for growth.

[2] = test system: P. acnes ATCC#11827; experiment: MIC via Zone of Inhibition testing, P. acnes; assay type: cell-based, Propoinibacterium acnes
Procedure: as §1, §2
(§3) For MLC Preparation, swabbing of the zones was performed to calculate MLC results. […] These swabs were then placed in TSA or BHIB for incubation. M. luteus tubes were incubated for 48 hours at 30° C. to 35° C. P. acnes tubes were incubated for 5-7 days at 35° C. to 38° C. anaerobically, C. xerosis tubes were incubated aerobically at 36° C. to 38° C. Tubes were inspected visually for growth and indicated below. Numbers indicate the average of the zone sizes on the two plates (in millimeters) as per MIC dilution. MLC results are recorded as positive or negative for growth.

[3] = test system: C. xerosis ATCC#373; experiment: MIC via Zone of Inhibition testing, C. xerosis; assay type: cell-based, Corynebacterium xerosis
Procedure: as §1, §2, §3

[4] = test system: Micrococcus luteus ATCC #10240; experiment: MLC by swabbing of the zones, M. luteus; assay type: cell-based; parameters: key: (+): MLC results are recorded as positive or negative for growth; (−): MLC results are recorded as positive or negative for growth
Procedure: as §3

[5] = test system: P. acnes ATCC#11827; experiment: MLC by swabbing of the zones, P. acnes; assay type: cell-based, Propoinibacterium acnes; parameters: key: (+): MLC results are recorded as positive or negative for growth; (−): MLC results are recorded as positive or negative for growth
Procedure: as §3

[6] = test system: C. xerosis ATCC#373; experiment: MLC by swabbing of the zones, C. xerosis; assay type: cell-based, Corynebacterium xerosis; parameters: key: (+): MLC results are recorded as positive or negative for growth; (−): MLC results are recorded as positive or negative for growth
Procedure: as §3

[7] = Solubility in cosmetic solvents; assay type: physicochemical
[8] = test system: human skin; experiment: Irritation and sensitization of human skin; assay type: in vivo; conditions: at levels effective for suppressing malodor formation
[9] = test system: gram-positive bacteria; experiment: Killing and suppressing gram-positive bacteria; assay type: cell-based

## CCCCCCCCCC(=O)N(C)C [dimethyl capramide, N,N-dimethyldecanamide]
[1]; dilution 1:5 (20%)
  MIC/Zone of Inhibition, average zone size: 14.7 millimeters
[1]; dilution 1:25 (4%)
  MIC/Zone of Inhibition, average zone size: 14.2 millimeters
[1]; dilution 1:125 (0.8%)
  MIC/Zone of Inhibition, average zone size: 13.6 millimeters
[2]; dilution 1:5 (20%)
  MIC/Zone of Inhibition, average zone size: 21.2 millimeters
[2]; dilution 1:25 (4%)
  MIC/Zone of Inhibition, average zone size: 23.8 millimeters
[2]; dilution 1:125 (0.8%)
  MIC/Zone of Inhibition, average zone size: 18.0 millimeters
[2]; dilution 1:625 (0.16%)
  MIC/Zone of Inhibition, average zone size: 8.1 millimeters
[3]; dilution 1:5 (20%)
  MIC/Zone of Inhibition, average zone size: 20.2 millimeters
[3]; dilution 1:25 (4%)
  MIC/Zone of Inhibition, average zone size: 13.9 millimeters
[3]; dilution 1:125 (0.8%)
  MIC/Zone of Inhibition, average zone size: 17.3 millimeters
[3]; dilution 1:625 (0.16%)
  MIC/Zone of Inhibition, average zone size: 8.6 millimeters
[3]; dilution 1:3125 (0.032%)
  MIC/Zone of Inhibition, average zone size: 7.2 millimeters
[4]; dilution 1:5 (20%)
  MLC Results, growth from swabbed zone: (−)
[4]; dilution 1:25 (4%)
  MLC Results, growth from swabbed zone: (+)
[4]; dilution 1:125 (0.8%)
  MLC Results, growth from swabbed zone: (+)
[5]; dilution 1:5 (20%)
  MLC Results, growth from swabbed zone: (−)
[5]; dilution 1:25 (4%)
  MLC Results, growth from swabbed zone: (−)
[5]; dilution 1:125 (0.8%)
  MLC Results, growth from swabbed zone: (+)
[5]; dilution 1:625 (0.16%)
  MLC Results, growth from swabbed zone: (+)
[6]; dilution 1:5 (20%)
  MLC Results, growth from swabbed zone: (−)
[6]; dilution 1:25 (4%)
  MLC Results, growth from swabbed zone: (−)
[6]; dilution 1:125 (0.8%)
  MLC Results, growth from swabbed zone: (−)
[6]; dilution 1:625 (0.16%)
  MLC Results, growth from swabbed zone: (+)
[6]; dilution 1:3125 (0.032%)
  MLC Results, growth from swabbed zone: (+)
[7]; in cyclomethicone
  solubility: greater than 50 wt. %
[7]; in propylene glycol
  solubility: greater than 50 wt. %
[8]
  irritation of human skin: non-irritating
[9]
  killing and suppressing gram-positive bacteria: effective in killing and suppressing
